# Legend:
# Ishikawa cells = test: Ishikawa cell alkaline phosphatase assay; format: cell-based, human; conditions: for ED50 of estrogenic activity by the alkaline phosphatase method: Ishikawa cells, 48 h treatment, reference standards; for % Activation (Ishikawa alkaline phosphatase) with 1 nM 17β-estradiol: compound + 1 nM 17β-estradiol (antiestrogen test); for % Activation (Ishikawa alkaline phosphatase): compound alone, percent of response related to 1 nM 17β-estradiol
# Description: Cells were treated for 48 h prior to assay. […] Sample population for at each dose was n=8. […] Plates are placed at -80° C. for a minimum of […]. Plates are thawed at 37° C. followed by the addition of 150 μL of 0.1 M Tris-HCl, pH 9.8, containing 4 mM para-nitrophenylphosphate (pNPP) to each well (final concentration, 3 mM pNPP). Absorbance and slope calculations were made using the […] Application program (Bio-Tek Instruments, Inc., Winooski, Vt.). […] The four listed in the following were used as reference standards: A description of these methods is described by Holinka, […]., Kuramoto, H. and Gurpide, E. (1986) Effects of steroid hormones and antisteroids on alkaline phosphatase activity in human endometrial cancer cells (Ishikawa Line). Cancer Research, 46:2771-2774, and by […]. and […] simple and sensitive microtiter plate estrogen bioassay based on stimulation alkaline phosphatase in Ishikawa cells; […] Endocrinology, 6:2757-2762.
# [1] = tested on: Immature Sprague-Dawley rats; test: Rat uterotrophic/antiuterotrophic bioassay; format: in vivo; conditions: immature female rats, daily ip; for Uterine wt mg 100 uG cmpd + 1uG 17β-estradiol: 100 uG compound + 1 uG 17β-estradiol; for Uterine wt mg 100 uG cmpd: 100 uG compound, wet weight
# Description: The estrogenic and antiestrogenic properties of the compounds were determined in an immature rat uterotrophic assay (4 day) that (as described previously by L. J. Black and R. L. Goode, Life Sciences, 26, 1453 (1980)). Immature Sprague-Dawley rats (female, 18 days old) were tested in groups of six. […] On day 4 the animals were sacrificed by CO2 asphyxiation and their uteri were removed and stripped of excess lipid, any fluid removed and the wet weight determined. A small section of one horn was submitted for histology and the remainder used to isolate total RNA in order to evaluate complement component 3 gene expression.
# estrogen receptor [2] = biological target: T1, estrogen receptor (Homo sapiens (Human), UniProt P03372); test: 2×VIT ERE infection luciferase assay; format: cell-based; conditions: for Infection Luciferase Activity, 1 uM + 17β estradiol: 1 uM compound + 1 nM 17β-estradiol (estrogen antagonism); for Infection Luciferase Activity, 1 uM: 1 uM compound alone, percentage of activity as compared to 17β-estradiol
# Description: Chinese Hamster Ovary cells (CHO) which had been stably transfected with the human estrogen receptor were maintained in DMEM+10% fetal bovine serum (FBS). 48 h prior to treatment the growth medium was replaced with DMEM lacking phenol red+10% dextran coated charcoal stripped FBS (treatment medium). Cells were plated at a density of 5000 cells/well in 96-well plates containing 200 μL of medium/well.
# Reporter DNA (Promega plasmid pGL2 containing two tandem copies of the vitellogenin ERE in front of the minimal thymidine kinase promoter driving the luciferase gene) was combined with the B-galactosidase expression plasmid pCH110 (Pharmacia) and carrier DNA (pTZ18U) in the following ratio:
# 20 uL of this mixture was added to each well of cells and remained on the cells for 16 h. […] Each treatment condition was performed on 8 wells (n=8) which were incubated for 24 h prior to the luciferase assay.
# After removing the PBS, 25 uL of Promega lysis buffer was added to each well and allowed to stand at room temperature for 15 min, followed by 15 min at −80° C. and 15 min at 37° C. 20 uL of lysate was transferred to an opaque 96 well plate for luciferase activity evaluation and the remaining lysate (5 uL) was used for the B-galactosidase activity evaluation (normalize transfection). The luciferan substrate (Promega) was added in 100 uL aliquots to each well automatically by the luminometer and the light produced (relative light units) was read 10 seconds after addition.
# To the remaining 5 uL of lysate 45 uL of PBS was added. Then 50 uL of Promega B-galactosidase 2× assay buffer was added, mixed well and incubated at 37° C. for 1 hour. A plate containing a standard curve (0.1 to 1.5 milliunits in triplicate) was set up for each experimental run. The plates were analyzed on a Molecular Devices spectrophotometric plate reader at 410 nm. The optical densities for the unknown were converted to milliunits of activity by mathematical extrapolation from the standard curve.
# The luciferase data was generated as relative light units (RLUs) accumulated during a 10 second measurement and automatically transferred to a JMP (SAS Inc) file where background RLUs were subtracted. The B-galactosidase values were automatically imported into the file and these values were divided into the RLUs to normalize the data. The mean and standard deviations were determined from a n=8 for each treatment. […] These techniques are described by Tzukerman, M. T., Esty, A., Santiso-Mere, D., Danielian, P., Parker, M. G., Stein, R. B., Pike, J. W. and McDonnel, D. P. (1994). Human estrogen receptor transactivational capacity was determined by both cellular and promoter context and mediated by two functionally distinct intramolecular regions (see Molecular Endocrinology, 8:21-30).
# estrogen receptor [3] = biological target: T1, estrogen receptor; test: In vitro estrogen receptor binding assay; conditions: competition with [3H]17β-estradiol, cytosol of CHO cells overexpressing the estrogen receptor; for IC50: read-out: Receptor Binding IC50's
# Description: CHO cells overexpressing the estrogen receptor were grown in 150 mm^2 dishes in DMEM+10% dextran coated charcoal, stripped fetal bovine serum. The plates were washed twice with PBS and once with 10 mM Tris-HCl, pH 7.4, 1 mM EDTA. Cells were harvested by scraping the surface and then the cell suspension was placed on ice. Cells were disrupted with a hand-held motorized tissue grinder using two, 10-second bursts. […] The cytosol was then frozen and stored at −80° C. Protein concentration of the cytosol was estimated using the BCA assay with reference standard protein.
# 100 uG/100 uL of the receptor preparation was aliquoted per well. […] The plate was incubated at room temperature for 2.5 h. […] 200 uL of the supernatant solution was then removed for scintillation counting. Samples were counted to 2% or 10 minutes, whichever occurs first.
# Counts per minute (CPM) of radioactivity were automatically converted to disintegrated per minute (DPM) by the Beckman LS 7500 Scintillation Counter using a set of quenched standards to generate a H No. for each sample.
# For the generation of IC50 curves, % binding is plotted vs compound. […] For a description of these methods, see Hulme, E. C., ed. […] Receptor-Ligand Interactions: A Practical Approach. IRL Press, New York. (see especially chapter 8).
# T1 sequence (P03372 whole entry): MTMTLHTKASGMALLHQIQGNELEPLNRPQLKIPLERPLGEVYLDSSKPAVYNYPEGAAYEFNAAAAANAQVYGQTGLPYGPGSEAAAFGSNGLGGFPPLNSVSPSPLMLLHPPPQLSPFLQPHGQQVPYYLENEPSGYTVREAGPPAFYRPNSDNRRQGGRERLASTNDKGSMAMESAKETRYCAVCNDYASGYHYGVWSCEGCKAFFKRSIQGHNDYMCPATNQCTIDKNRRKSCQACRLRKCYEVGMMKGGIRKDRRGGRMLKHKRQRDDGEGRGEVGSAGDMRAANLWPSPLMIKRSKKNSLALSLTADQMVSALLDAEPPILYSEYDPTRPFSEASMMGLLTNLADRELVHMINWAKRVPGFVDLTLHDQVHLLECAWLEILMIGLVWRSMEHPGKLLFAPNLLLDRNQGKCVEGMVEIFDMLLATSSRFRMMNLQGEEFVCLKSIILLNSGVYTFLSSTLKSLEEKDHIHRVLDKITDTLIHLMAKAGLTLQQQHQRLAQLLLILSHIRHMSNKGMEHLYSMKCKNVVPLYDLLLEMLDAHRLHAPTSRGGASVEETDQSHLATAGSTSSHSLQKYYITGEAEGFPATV
Structure (SMILES),Uterine wt mg 100 uG cmpd + 1uG 17β-estradiol [1],Uterine wt mg 100 uG cmpd [1],"Infection Luciferase Activity, 1 uM + 17β estradiol (estrogen receptor [2])","Infection Luciferase Activity, 1 uM (estrogen receptor [2])",IC50 (estrogen receptor [3]),other results
C[C@]12CC[C@@H]3c4ccc(O)cc4CC[C@H]3[C@@H]1CC[C@H]2O [17α-estradiol],–,–,–,–,–,ED50 of estrogenic activity by the alkaline phosphatase method (Ishikawa cells): 1.42 nM
"Cc1c(-c2ccccc2)n(Cc2ccc(OCCN3CCCCC3)cc2)c2ccccc12 [No. 85, 4-{3-Methyl-1-[4-(2-piperidin-1-yl-ethoxy)-benzyl]-1H-indole}]",92.4 mg,41.1 mg,43%,−2%,450 nM,–
"Cc1c(-c2ccc(O)cc2)n(Cc2ccc(OCCN3CCCCCC3)cc2)c2ccc(O)cc12 [No. 98, 1-[4-(2-Azepan-1-yl-ethoxy)-benzyl]-2-(4-hydroxy-phenyl)-3-methyl-1H-indol-5-ol]",27.9 mg,29.4 mg,–,–,–,% Activation (Ishikawa alkaline phosphatase) with 1 nM 17β-estradiol (Ishikawa cells): 1% activity (1% with 1 nM 17β-estradiol); % Activation (Ishikawa alkaline phosphatase) (Ishikawa cells): 1% activity (1% with 1 nM 17β-estradiol)
"Cc1c(-c2ccc(O)cc2)n(Cc2ccc(OCC[N+](C)(C)C)cc2)c2ccc(O)cc12.[I-] [No. 106, 2-(4-Hydroxy-phenyl)-3-methyl-1-[4-(2-dimethyl-1-yl-ethoxy)-benzyl]-1H-indol-5-ol methiodide]",–,–,81%,10%,100 nM,–
"Cc1c(-c2ccc3c(c2)OCO3)n(Cc2ccc(OCCN3CCCCC3)cc2)c2ccc(O)cc12 [No. 119, 2-Benzo[1.3]dioxol-5-yl-3-methyl-1-[4-(2-piperidin-1-yl-ethoxy)-benzyl]-1H-indol-5-ol]",–,–,−1%,−1%,70 nM,–
"Cc1c(-c2ccc(OC(C)C)cc2)n(Cc2ccc(OCCN3CCCCC3)cc2)c2ccc(O)cc12 [No. 120, 2-(4-Isopropoxy-phenyl)-3-methyl-1-[4-(2-1-yl-ethoxy)-benzyl]-1H-indol-5-ol]",–,–,1%,−1%,100 nM,–
"Cc1c(-c2ccc(OC3CCCC3)cc2)n(Cc2ccc(OCCN3CCCCC3)cc2)c2ccc(O)cc12 [No. 122, 2-(4-Cyclopenyloxy-phenyl)-3-methyl-1-[4-(2-piperidin-1-yl-ethoxy)-benzyl]-1H-indol-5-ol]",38.7 mg,46.7 mg,5%,1%,80 nM,–
"Cc1c(-c2ccc(C(F)(F)F)cc2)n(Cc2ccc(OCCN3CCCCC3)cc2)c2ccc(O)cc12 [No. 123, 3-Methyl-1-[4-(2-piperidin-1-yl-ethoxy)-benzyl]-2-(4-trifluoromethyl-phenyl)-1H-indol-5-ol]",61.4 mg,39.2 mg,1%,−1%,–,–
"N#Cc1c(-c2ccc(O)cc2)n(Cc2ccc(OCCN3CCCCC3)cc2)c2ccc(O)cc12 [No. 138, 5-Hydroxy-2-(4-Hydroxy-phenyl)-1-[4-(2-piperidin-1-yl-ethoxy)-benzyl]-1H-indole-3-carbonitrile]",37.9 mg,28.4 mg,−1%,−2%,–,–
"Cc1c(-c2ccc(OC(=O)C(C)(C)C)cc2)n(Cc2ccc(OCCN3CCCCC3)cc2)c2ccc(OC(=O)C(C)(C)C)cc12 [No. 162, Di-pivalate ester of 2-(4-Hydroxy-phenyl)-3-methyl-1-[4-(2-piperidin-1-yl-ethoxy)-benzyl]-1H-indol-5-ol]",–,–,−13%,−14%,–,Receptor Binding IC50's (estrogen receptor [3]): Does not Bind
"COc1cc(Cn2c(-c3ccc(O)cc3)c(C)c3cc(O)ccc32)ccc1OCCN1CCCCCC1 [No. 168, 2-(4-Hydroxy-phenyl)-1-[3-methoxy-4-(2-azepan-1-yl-ethoxy)-benzyl]-3-methyl-1H-indol-5-ol]",81.7 mg,43.2 mg,–,–,–,–
C[C@]12CC[C@@H]3c4ccc(O)cc4CC[C@H]3[C@@H]1C[C@@H](O)[C@@H]2O [estriol],–,–,–,–,–,ED50 of estrogenic activity by the alkaline phosphatase method (Ishikawa cells): 0.13 nM
C[C@]12CC[C@@H]3c4ccc(O)cc4CC[C@H]3[C@@H]1CCC2=O [estrone],–,–,–,–,–,ED50 of estrogenic activity by the alkaline phosphatase method (Ishikawa cells): 0.36 nM
O=C(c1ccc(OCCN2CCCCC2)cc1)c1c(-c2ccc(O)cc2)sc2cc(O)ccc12 [raloxifene],–,–,–,–,–,% Activation (Ishikawa alkaline phosphatase) with 1 nM 17β-estradiol (Ishikawa cells): 5% activity (5% with 1 nM 17β-estradiol); % Activation (Ishikawa alkaline phosphatase) (Ishikawa cells): 5% activity (5% with 1 nM 17β-estradiol)
CC/C(=C(\c1ccccc1)c1ccc(OCCN(C)C)cc1)c1ccccc1 [tamoxifen],–,71.4 mg,–,–,–,–
